Test results published in patent US5326774A, “Pharmaceutical preparation of antihypertensive, antianginal, antiarrhythmic and antiglaucomic action” (priority 1992, dated 1994).
“And” between values parts separate entries of the source, which are not always exact repeats. Equal entries are not always repeated. Where two headings read alike, the source gives them in different places.

Tests used:
[1] = molecular target: T1, β2-adrenoceptor (Rattus norvegicus, UniProt P10608); experiment: Inhibition of isadrin's depressor effect, i.v., anesthetized rats; type: in vivo; conditions: rat, iv, read-out: Dosage inhibiting isadrin's depressor effect by 50%, ED50
T1 construct: positive chronotropic and depressor effects in the anesthetized rats; from tissue; host or cells: whole living rat (blood pressure response to isadrin); endogenous receptor
T1 sequence (P10608 whole entry): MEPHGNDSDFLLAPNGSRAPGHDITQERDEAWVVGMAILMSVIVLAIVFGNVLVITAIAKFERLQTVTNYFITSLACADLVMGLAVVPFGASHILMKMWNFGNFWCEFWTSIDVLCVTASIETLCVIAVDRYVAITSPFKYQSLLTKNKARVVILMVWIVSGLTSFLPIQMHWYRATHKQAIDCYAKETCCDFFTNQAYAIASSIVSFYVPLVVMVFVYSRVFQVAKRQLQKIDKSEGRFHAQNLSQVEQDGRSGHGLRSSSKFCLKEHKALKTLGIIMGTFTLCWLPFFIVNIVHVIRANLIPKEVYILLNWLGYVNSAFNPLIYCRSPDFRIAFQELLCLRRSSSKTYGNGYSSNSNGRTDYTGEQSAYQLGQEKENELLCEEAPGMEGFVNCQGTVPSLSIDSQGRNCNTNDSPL

[2] = system: vascular regions; experiment: Labeled microsphere method: cardiac output distribution in normotensive rats; type: in vivo, rat
[3] = system: vascular regions; experiment: Labeled microsphere method in rats with renovascular hypertension; type: in vivo, rat
[4] = system: strophantin-induced arrhythmia; type: in vivo, guinea pig
[5] = system: arterial pressure; experiment: Hypotensive activity in anesthetized cats, i.v.; type: in vivo, cat
[6] = system: electrically induced ventricular fibrillation; experiment: Threshold of electrically induced ventricular fibrillation in anesthetized cats; type: in vivo, cat
[7] = system: mesaton-initiated pressor effect; experiment: Mesaton-initiated pressor effect in anesthetized rats; type: in vivo, rat; conditions: for effect on mesaton pressor effect: 3 mg/kg i.v.; for suppression of mesaton pressor effect: 10 mg/kg i.v., average
[8] = molecular target: T2, β1-adrenoceptor (Rattus norvegicus, UniProt P18090); experiment: Inhibition of isadrin's positive chronotropic effect, i.v., anesthetized rats; type: in vivo; conditions: rat, iv, read-out: Dosage inhibiting isadrin's positive chronotropism by 50% (ED50)
T2 construct: positive chronotropic and depressor effects in the anesthetized rats; from tissue; host or cells: whole living rat (heart rate response to isadrin); endogenous receptor
T2 sequence (P18090 whole entry): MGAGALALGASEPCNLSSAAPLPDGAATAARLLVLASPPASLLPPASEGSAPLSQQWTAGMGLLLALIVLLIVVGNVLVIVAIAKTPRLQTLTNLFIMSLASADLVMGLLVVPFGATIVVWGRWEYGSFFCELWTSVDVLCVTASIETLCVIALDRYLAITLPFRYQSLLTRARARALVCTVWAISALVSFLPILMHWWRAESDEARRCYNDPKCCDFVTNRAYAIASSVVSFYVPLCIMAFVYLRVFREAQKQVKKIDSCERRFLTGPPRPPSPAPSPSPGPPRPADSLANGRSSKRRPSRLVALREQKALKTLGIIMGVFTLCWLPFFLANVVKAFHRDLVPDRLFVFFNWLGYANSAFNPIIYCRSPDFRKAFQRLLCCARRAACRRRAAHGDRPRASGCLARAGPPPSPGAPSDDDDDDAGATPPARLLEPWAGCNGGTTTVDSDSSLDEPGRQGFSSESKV

[9] = system: coronary vessels; experiment: Coronary vessel dilatation and myocardial perfusion in anesthetized rats; type: in vivo, rat; conditions: 0.1 mg/kg i.v. (compound of the invention)
Excerpt: The coronarodilative effect of the compound according to the invention is not associated with its β- and α-adrenoceptor blocking activity and its influence on the systemic perfusion pressure and pump function of the heart. […]

[10] = in vivo; conditions: mouse, iv
Description: LD50 values were estimated by using the Litchfield-Wilckoxon method.

[11] = system: intraocular tension; experiment: Clinical test in 108 patients with glaucoma resistant to conventional therapy; conditions: human, in vivo
Description: The preparation of the invention was tested on 108 patients with different cases of glaucoma resistant to the conventional antiglaucomic therapy. […] A long-term resetting for more than 1 month of intraocular tension was attained in 76% of patients.

[12] = system: intraocular tension of intact rabbit eyes; conditions: 1% solution
Description: The effects of the compound according to the invention on intraocular tension and hydrodynamics of the eye was tested in 28 chinchilla rabbits with body weight of 2.5-3.5 kg.
The left animal eyes were control wherein using the same procedure a diluent was instilled.

[13] = system: arterial pressure; experiment: Antihypertensive effect in rats with renovascular hypertension; type: in vivo, rat; conditions: same conditions
Description: . In rats suffering from renovascular hypertension the compound of the invention in the dosage of 10 mg/kg (injected intramuscularly) lowered with confidence the arterial pressure (from 137±3 to 117±5 mm of Hg column) 30 minutes after being administered. The 2-week course of the administration of the compound according to the invention (10 mg/kg 1 time a day) caused the antihypertensive effect to be enhanced. By the end of the second week the arterial pressure was 110±8.6 mm Hg. […]

[14] = system: ventricular fibrillation; experiment: Ventricular fibrillation during acute coronary occlusion and reperfusion in anesthetized dogs; type: in vivo, dog; conditions: for Ventricular fibrillation during acute occlusion and reperfusion: single animals
[15] = system: arterial pressure; experiment: Arterial pressure and heart rate in conscious normotensive rats, oral; type: in vivo, rat; conditions: 150 mg/kg
[16] = β-adrenoceptor blocking doses, normotensive rats

CC(CCc1ccccc1)NCC(O)c1ccc(O)c(C(N)=O)c1 (stereo not shown) [Labetalol, labetalol]
ED50 [1]: 3.3 ± 0.2 mg/kg
nature of vasodilating effect ([2]; dosages to block α-adrenoceptors): slight change of vasodilating nature
most sensible vessels [2, 16]: the vessels of skeletal muscles, testicles, spleen, kidneys and adrenals
vasodilating properties [2, 16]: exhibits vasodilating properties
vasodilating properties [3]: shows vasodilating properties
Arrhythmogenic dose of strophantin as compared with control: extrasystoles ([4]; 0.3 mg/kg i.v.): 101%
Dose of strophantin as compared with control: ventricular fibrillation ([4]; 0.3 mg/kg i.v.): 113%
Arrhythmogenic dose of strophantin as compared with control: extrasystoles ([4]; 1.0 mg/kg i.v.): 127%
Dose of strophantin as compared with control: ventricular fibrillation ([4]; 1.0 mg/kg i.v.): 131%
Lethal dose of strophantin as compared with control: animal death ([4]; 1.0 mg/kg i.v.): 128%
Arrhythmogenic dose of strophantin as compared with control: extrasystoles ([4]; 3.0 mg/kg i.v.): 136%
Dose of strophantin as compared with control: ventricular fibrillation ([4]; 3.0 mg/kg i.v.): 137%
Lethal dose of strophantin as compared with control: animal death ([4]; 3.0 mg/kg i.v.): 132%
ED20 ([5]; Felis catus, iv, anesthetized cats, read-out: Dose resulting in lowering of arterial pressure by 20%, ED20): 1 ± 0.09 mg/kg
minimal effective dose ([5]; Felis catus, iv, cats, read-out: dosage from which arterial pressure lowered): 0.1 mg/kg
hypotensive effect compared with compound of the invention ([5]; from 0.1 mg/kg): less pronounced and prolonged effect
threshold of electrically induced ventricular fibrillation ([6]; 1 mg/kg): did not change
threshold of electrically induced ventricular fibrillation ([6]; 5 mg/kg): increased considerably this threshold
value of increasing threshold compared with propranolol and oxprenolol ([6]; 5 mg/kg): higher
effect on mesaton pressor effect [7]: did not change
suppression of mesaton pressor effect [7]: 47%
ED50 [8]: 0.7 ± 0.05 mg/kg
coronary vessel dilatation / myocardial perfusion [9]: did not lead to the dilatation of coronary vessels

CC(C)NCC(O)COc1cccc2[nH]ccc12 (stereo not shown) [Pindolol, pindolol, reference compound]
ED50 [1]: 0.02 ± 0.002 mg/kg
LD50 at 72 h [10]: 29 mg/kg
threshold of electrically induced ventricular fibrillation ([6]; dosages tested): no effect
ED50 [8]: 0.025 ± 0.002 mg/kg

C=CCOc1ccccc1OCC(O)CNC(C)C (stereo not shown) [Oxprenolol, oxprenolol]
ED50 [1]: 0.055 ± 0.005 mg/kg
Arrhythmogenic dose of strophantin as compared with control: extrasystoles ([4]; guinea pig, in vivo): 105% and 120% and 110%
Dose of strophantin as compared with control: ventricular fibrillation ([4]; guinea pig, in vivo): 101% and 110% and 121%
Lethal dose of strophantin as compared with control: animal death ([4]; guinea pig, in vivo): 102% and 112%
threshold of electrically induced ventricular fibrillation ([6]; 1 mg/kg): did not change
threshold of electrically induced ventricular fibrillation ([6]; 5 mg/kg): increased considerably this threshold
effect on mesaton pressor effect [7]: did not change
suppression of mesaton pressor effect [7]: 10%
ED50 [8]: 0.26 ± 0.025 mg/kg

CC(C)(C)NC[C@H](O)COc1nsnc1N1CCOCC1 [thymolol]
mechanism of ocular hypotensive effect [11]: associated not only with inhibition of intraocular liquid secretion, but with improvement of its outflow

CC(C)NCC(O)COc1cccc2ccccc12 (stereo not shown) [Propranolol, propranolol]
Average decrease of intraocular tension OD, M ± m ([12]; 2 hours): 2.6 ± 0.3 ram of Hg column
Average decrease of intraocular tension OD, M ± m ([12]; 4 hours): 2.2 ± 0.2 ram of Hg column
antihypertensive efficacy [13]: low efficacy
Arrhythmogenic dose of strophantin as compared with control: extrasystoles ([4]; guinea pig, in vivo): 92.7% and 110%
Dose of strophantin as compared with control: ventricular fibrillation ([4]; guinea pig, in vivo): 97.9% and 106.3% and 120%
prevention of ventricular fibrillation in temporary coronary occlusion ([14]; 1 mg/kg i.v.): the same effect
Ventricular fibrillation during acute occlusion and reperfusion ([14]; 10 min after injection): R
Ventricular fibrillation during acute occlusion and reperfusion ([14]; 60 min after injection): R
threshold of electrically induced ventricular fibrillation ([6]; 5 mg/kg): increased considerably this threshold
arterial pressure [15]: small influence on arterial pressure
heart rate [15]: decreased the heart rate slightly
coronary vessel dilatation / myocardial perfusion [9]: unfavourable effect on transmural, myocardial perfusion
